Earlier results as cited in patent US6703045B2, “Composition and method for maintaining blood glucose level” (Council of Scientific & Industrial Research, priority 2001, dated 2004).

[1] = approximate incidence in patients

Compound: Cc1cnc(C(=O)NCCc2ccc(S(=O)(=O)NC(=O)NC3CCCCC3)cc2)cn1 [Glipizide, 1-cyclohexyl-3-[[p-[2-(5-methylpyrazinecarboxamido)ethyl]phenyl]sulfonyl] urea]
- incidence of constipation and gastralgia [1]: one in one hundred
- incidence of nausea and diarrhea [1]: one in seventy
- incidence of dizziness, drowsiness, and headache (each) (patients): about one in fifty
